Experimental findings from patent publication US8609836B2, “4-aryl-2-anilino-pyrimidines” (Janssen Pharmaceutica NV, priority 2008, dated 2013) are described below.

For one assay, the system named is H1299. The experiment in a line: Cellular proliferation assay (Alamar blue), H1299. The following applies: Homo sapiens, NCI-H1299; 10% FCS; 72 hours with compound; Alamar blue 4 h. The format is cell-based. The procedure, abridged:
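This proliferation assay on NCI-H1299 cells used an initial 24-hour compound-free incubation after seeding, followed by 72 hours of compound treatment with 10% FCS serum at 37° C. and 5% (v/v) CO2. Viable cells were quantified by a 4 h Alamar blue incubation and fluorescent plate reading at 544 nm/590 nm, and effects were expressed relative to control cells.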

In another assay the target is AuroraB (h) (Homo sapiens, UniProt Q96GD4). In words: Aurora-B human kinase inhibition, SPA. The format is biochemical. The note with it: read-out: AuroraB pIC50 (converted). In a few lines:
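SPA with biotinylated peptide (3 μM) in 60 mM Hepes pH 7.5, Mg/Mn 3 mM each, 0.5 μM ATP plus [γ-33P]ATP, AuroraB at 0.5 μg/ml. The reaction runs 60 min at room temperature and is stopped with EDTA and streptavidin PVT beads. 33P-substrate is read by scintillation imaging.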

Another assay deals with CDK4/CyclinD1 (h) (Homo sapiens, UniProt P11802). The experiment in a line: CDK4/CyclinD1 human kinase inhibition, SPA with GST-pRb substrate. It is filed as biochemical. The note with it: read-out: CDK4 pIC50 (converted). In a few lines:
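Human CDK4/CyclinD1 (2.5 μg/ml) was incubated with 40 μg/ml GST-pRb and 2 nM [γ-33P]ATP in 50 mM Hepes pH 7.5, 8 mM NaF, 20 mM MgCl2, 1 mM DTT for 60 min at room temperature. EDTA stop with glutathione SPA beads; phosphorylation read by scintillation counting.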

The target of a further assay is PLK3 (h) (Homo sapiens, UniProt Q9H4B4). In words: PLK3 human kinase inhibition, SPA. It is filed as biochemical. The note with it: read-out: PLK3 pIC50 (converted). The procedure, abridged:
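SPA: PLK3 (h) at 30 μg/ml with 2 μM biotinylated peptide, 0.1 μM ATP plus 2 nM [γ-33P]ATP in 50 mM Hepes pH 8.0, 2 mM MnCl2 and 1 mM DTT. Incubated 20 min at room temperature, then stopped with EDTA and streptavidin PVT beads. Scintillation imaged on Leadseeker.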

AuroraB (h), sequence (Q96GD4 whole entry): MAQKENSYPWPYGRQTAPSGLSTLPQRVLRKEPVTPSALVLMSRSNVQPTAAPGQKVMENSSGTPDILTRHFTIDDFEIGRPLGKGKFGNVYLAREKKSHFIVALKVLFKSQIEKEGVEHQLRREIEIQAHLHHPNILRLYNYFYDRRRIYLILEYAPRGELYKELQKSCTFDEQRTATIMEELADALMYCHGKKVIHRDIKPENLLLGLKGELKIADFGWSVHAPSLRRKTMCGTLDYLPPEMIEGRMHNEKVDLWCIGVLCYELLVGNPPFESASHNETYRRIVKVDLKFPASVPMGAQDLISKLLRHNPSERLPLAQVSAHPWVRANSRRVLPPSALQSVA
PLK3 (h), sequence (Q9H4B4 whole entry): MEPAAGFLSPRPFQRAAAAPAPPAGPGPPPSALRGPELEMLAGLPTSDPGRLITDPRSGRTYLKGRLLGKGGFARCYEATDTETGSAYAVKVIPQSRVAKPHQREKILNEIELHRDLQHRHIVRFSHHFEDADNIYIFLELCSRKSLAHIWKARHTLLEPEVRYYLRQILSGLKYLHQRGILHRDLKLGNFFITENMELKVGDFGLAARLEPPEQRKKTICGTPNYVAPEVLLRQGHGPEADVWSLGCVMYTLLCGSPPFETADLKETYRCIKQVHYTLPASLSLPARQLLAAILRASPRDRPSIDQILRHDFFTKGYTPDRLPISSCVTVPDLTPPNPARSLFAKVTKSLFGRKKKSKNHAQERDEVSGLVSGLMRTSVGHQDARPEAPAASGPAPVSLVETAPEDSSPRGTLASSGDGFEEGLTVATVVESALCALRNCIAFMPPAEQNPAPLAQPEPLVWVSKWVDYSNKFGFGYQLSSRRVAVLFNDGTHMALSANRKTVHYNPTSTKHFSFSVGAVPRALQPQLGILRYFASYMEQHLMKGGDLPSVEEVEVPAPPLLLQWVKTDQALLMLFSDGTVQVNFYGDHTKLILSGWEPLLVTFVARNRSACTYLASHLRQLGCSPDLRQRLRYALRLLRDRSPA
CDK4/CyclinD1 (h), sequence (P11802 whole entry): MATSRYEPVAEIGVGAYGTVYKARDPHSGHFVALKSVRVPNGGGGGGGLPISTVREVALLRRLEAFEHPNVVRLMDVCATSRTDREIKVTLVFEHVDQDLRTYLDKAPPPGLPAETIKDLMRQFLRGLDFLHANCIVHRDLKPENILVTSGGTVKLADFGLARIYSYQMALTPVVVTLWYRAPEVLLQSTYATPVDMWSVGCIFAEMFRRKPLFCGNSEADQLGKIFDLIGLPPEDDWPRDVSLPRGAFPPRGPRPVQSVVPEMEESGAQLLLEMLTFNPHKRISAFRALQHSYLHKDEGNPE
CDK4/CyclinD1 (h), sequence (P24385 whole entry partner): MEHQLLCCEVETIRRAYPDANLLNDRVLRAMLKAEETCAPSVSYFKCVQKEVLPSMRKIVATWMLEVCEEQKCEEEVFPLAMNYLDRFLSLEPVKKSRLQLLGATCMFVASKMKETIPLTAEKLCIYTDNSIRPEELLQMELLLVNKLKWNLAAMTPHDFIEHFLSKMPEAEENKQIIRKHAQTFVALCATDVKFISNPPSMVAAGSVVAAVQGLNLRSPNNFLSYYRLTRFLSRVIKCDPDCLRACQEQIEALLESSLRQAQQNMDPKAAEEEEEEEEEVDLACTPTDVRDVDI

As for `O=C1NCc2cccc(c2)-c2ccnc(n2)Nc2cc(ccc2Cl)CN[C@H]1CO` [Compound 188], the IC50 with H1299, on AuroraB (h), at CDK4/CyclinD1 (h) and on PLK3 (h) was over 10 µM throughout.
As for `COc1cc2cc(c1)Nc1nccc(n1)-c1ccc(cc1)CN(C)CCNC(=O)[C@H](CO)NC2` [Compound 109], the IC50 in the assay on H1299 is over 10 µM; on AuroraB (h) it was 7.41 µM; at CDK4/CyclinD1 (h) it was over 10 µM; on PLK3 (h) it was over 10 µM.
For the compound `C[C@@H]1NCc2ccc(Cl)c(c2)Nc2nccc(n2)-c2cccc(c2)CNC1=O` [Compound 186], the IC50 in the assay with H1299, on AuroraB (h), on CDK4/CyclinD1 (h) and on PLK3 (h) was over 10 µM throughout.
Consider `O=C1NCc2cccc(c2)-c2ccnc(n2)Nc2cccc(c2)CN[C@H]1Cc1ccccc1` [Compound 185], for which the IC50 with H1299 is 2.63 µM; on AuroraB (h), over 10 µM; on CDK4/CyclinD1 (h) it was over 10 µM; at PLK3 (h), over 10 µM.
With `O=C1NCc2cccc(c2)-c2ccnc(n2)Nc2ccc(cc2)CN[C@H]1Cc1ccccc1` [Compound 192], the IC50 in the assay with H1299, on AuroraB (h), on CDK4/CyclinD1 (h) and on PLK3 (h) was over 10 µM in each case.
Consider `O=C1NCCNCc2ccc(cc2)-c2ccnc(n2)Nc2ccc(N3CCOCC3)c(c2)CN2CCC[C@@H]12` [Compound 157], for which the IC50 is 5.13 µM in the assay on H1299, 9.55 µM at AuroraB (h), over 10 µM on CDK4/CyclinD1 (h) and 9.55 µM on PLK3 (h).
In the case of `COc1cc2cc(c1)Nc1nccc(n1)-c1ccc(cc1)CN(C)CCNC(=O)[C@@H]1CCCN1C2` [Compound 158], the IC50 with H1299 is over 10 µM; on AuroraB (h) it was over 10 µM; on CDK4/CyclinD1 (h), over 10 µM; on PLK3 (h), 7.08 µM.
Take `CN1CCNC(=O)[C@@H]2CCCN2Cc2cccc(c2)Nc2nccc(n2)-c2ccc(cc2)C1` [Compound 160]: the IC50 was over 10 µM in the assay on H1299, over 10 µM at AuroraB (h), over 10 µM on CDK4/CyclinD1 (h) and 9.33 µM at PLK3 (h).
`O=C1NCc2cccc(c2)-c2ccnc(n2)Nc2ccccc2CN2CCC[C@@H]12` [Compound 57]: the IC50 with H1299 was over 10 µM; at AuroraB (h), over 10 µM; on CDK4/CyclinD1 (h), over 10 µM; at PLK3 (h) it was over 1 µM.
Take `CC(C)(C)O[C@@H]1C[C@H]2C(=O)NCc3cccc(c3)-c3ccnc(n3)Nc3ccccc3CN2C1` [Compound 58]: the IC50 with H1299, on AuroraB (h), on CDK4/CyclinD1 (h) and at PLK3 (h) was over 10 µM in each case.
Consider `O=C1NCc2cccc(c2)-c2ccnc(n2)Nc2ccc(N3CCOCC3)c(c2)CN[C@H]1Cc1ccccc1` [Compound 18], for which the IC50 with H1299, at AuroraB (h), at CDK4/CyclinD1 (h) and on PLK3 (h) was over 10 µM in each case.
Turning to `CN(C)C(=O)c1cc2cc(c1)Nc1nccc(n1)-c1cccc(c1)CNC(=O)[C@@H]1CCCN1C2` [Compound 35], the IC50 was over 10 µM in the assay with H1299, over 10 µM at AuroraB (h), 1.35 µM on CDK4/CyclinD1 (h) and over 10 µM at PLK3 (h).
As to `COc1ccc2cc1CN[C@@H](CO)C(=O)N(C)CCCN(C)c1ccc(cn1)-c1ccnc(n1)N2` [Compound 11], the IC50 in the assay on H1299, on AuroraB (h), at CDK4/CyclinD1 (h) and on PLK3 (h) was over 10 µM in each case.
Take `O=C1NCc2cccc(c2)-c2ccnc(n2)Nc2cc(ccc2Cl)CN2C[C@H](O)C[C@@H]12` [Compound 52]: the IC50 in the assay on H1299, at AuroraB (h), on CDK4/CyclinD1 (h) and on PLK3 (h) was over 10 µM in each case.
`CN(C)CCNC(=O)c1cc2cc(c1)Nc1nccc(n1)-c1cccc(c1)CNC(=O)[C@@H]1CCCN1C2` [Compound 39]: the IC50 in the assay with H1299 was over 10 µM; at AuroraB (h), over 10 µM; on CDK4/CyclinD1 (h), 1.12 µM; on PLK3 (h) it was over 10 µM.
With `COc1ccc2cc1CN(C)CCNC(=O)CN1CCN(CC1)Cc1cc(NCCc3ccccc3)cc(c1)Nc1nccc-2n1` [Compound 138], the IC50 in the assay on H1299 is 10 µM; at AuroraB (h) it was over 10 µM; on CDK4/CyclinD1 (h) it was over 10 µM; at PLK3 (h) it was over 10 µM.
For `O=C1NCc2cccc(c2)-c2ccnc(n2)Nc2cccc(c2)CN2C[C@@H](O)C[C@@H]12` [Compound 45], the IC50 is 1.17 µM with H1299, over 10 µM at AuroraB (h), 0.933 µM at CDK4/CyclinD1 (h) and over 10 µM on PLK3 (h).
As for `O=C1CN2CCN(CC2)Cc2cc(ccc2N2CCOCC2)Nc2nccc(n2)-c2cccc(c2)CN1` [Compound 20], the IC50 in the assay with H1299, at AuroraB (h), on CDK4/CyclinD1 (h) and on PLK3 (h) was over 10 µM throughout.
With `O=C1NCc2cccc(c2)-c2ccnc(n2)Nc2ccc(cc2)CN2CCC[C@@H]12` [Compound 54], the IC50 was over 10 µM with H1299, over 10 µM on AuroraB (h), 7.41 µM at CDK4/CyclinD1 (h) and over 10 µM on PLK3 (h).
For the compound `CN1CCNC(=O)CN2CCN(CC2)Cc2cccc(c2)Nc2nccc(n2)-c2ccc(cc2)C1` [Compound 134], the IC50 in the assay with H1299, at AuroraB (h), at CDK4/CyclinD1 (h) and at PLK3 (h) was over 10 µM each time.
For the compound `COc1ccc2cc1CN(C)CCNC(=O)[C@H](CO)NCc1cc(Br)cc(c1)Nc1nccc-2n1` [Compound 119], the IC50 with H1299, at AuroraB (h), at CDK4/CyclinD1 (h) and on PLK3 (h) was over 10 µM each time.
Turning to `O=C1CN2CCN(CC2)Cc2ccc(cc2)Nc2nccc(n2)-c2cccc(c2)CN1` [Compound 193], the IC50 in the assay with H1299 is over 10 µM; on AuroraB (h), over 10 µM; at CDK4/CyclinD1 (h), 4.37 µM; at PLK3 (h) it was over 10 µM.
As to `CC(C)Nc1cc2cc(c1)Nc1nccc(n1)-c1ccc(cc1)CN(C)CCCNC(=O)[C@@H]1CCCN1C2` [Compound 151], the IC50 with H1299, at AuroraB (h), at CDK4/CyclinD1 (h) and on PLK3 (h) was over 10 µM throughout.
For `O=C1CN2CCN(CC2)Cc2ccc(Cl)c(c2)Nc2nccc(n2)-c2cccc(c2)CN1` [Compound 195], the IC50 with H1299, on AuroraB (h), on CDK4/CyclinD1 (h) and at PLK3 (h) was over 10 µM each time.
Consider `CN1CCC(NC(=O)c2ccc3cc2CN2CCC[C@H]2C(=O)NCc2cccc(c2)-c2ccnc(n2)N3)CC1` [Compound 47], for which the IC50 in the assay on H1299 is 9.55 µM; on AuroraB (h), over 10 µM; at CDK4/CyclinD1 (h), 1.2 µM; at PLK3 (h), over 1 µM.
As to `COc1ccc2cc1CN(C)CCCNC(=O)[C@@H]1CCCN1Cc1cc(NCCc3ccccc3)cc(c1)Nc1nccc-2n1` [Compound 167], the IC50 with H1299, at AuroraB (h), at CDK4/CyclinD1 (h) and on PLK3 (h) was over 10 µM throughout.
Turning to `COc1ccc2cc1CN(C)CCNC(=O)C1CCN(CC1)Cc1cc(NCCc3ccccc3)cc(c1)Nc1nccc-2n1` [Compound 74], the IC50 in the assay on H1299, at AuroraB (h), at CDK4/CyclinD1 (h) and on PLK3 (h) was over 10 µM each time.
Consider `O=C1CN2CCN(CC2)Cc2cc(ccc2N2CCOCC2)Nc2nccc(n2)-c2cccc(c2)OCCN1` [Compound 102], for which the IC50 with H1299 is 1.15 µM; at AuroraB (h), over 10 µM; at CDK4/CyclinD1 (h), 8.13 µM; at PLK3 (h), over 10 µM.
As to `O=C1NCc2cccc(c2)-c2ccnc(n2)Nc2cccc(c2)CN[C@H]1CO` [Compound 187], the IC50 in the assay on H1299 is 6.17 µM; at AuroraB (h), over 10 µM; on CDK4/CyclinD1 (h), 1.2 µM; on PLK3 (h), over 10 µM.
Turning to `COCCNC(=O)c1cc2cc(c1)Nc1nccc(n1)-c1cccc(c1)CNC(=O)[C@@H]1CCCN1C2` [Compound 44], the IC50 in the assay on H1299 was over 10 µM; at AuroraB (h), over 10 µM; on CDK4/CyclinD1 (h) it was 3.63 µM; at PLK3 (h), over 10 µM.
In the case of `COc1cc2cc(c1)Nc1nccc(n1)-c1ccc(OC)c(c1)CN(C)CCNC(=O)[C@@H]1CCCN1C2` [Compound 162], the IC50 was over 10 µM with H1299, 6.61 µM on AuroraB (h), over 10 µM at CDK4/CyclinD1 (h) and over 10 µM on PLK3 (h).
Regarding `CN1CCNC(=O)[C@@H]2CCCN2Cc2cc(cc(N3CCOCC3)c2)Nc2nccc(n2)-c2ccc(cc2)C1` [Compound 154], the IC50 in the assay on H1299, at AuroraB (h), on CDK4/CyclinD1 (h) and at PLK3 (h) was over 10 µM in each case.
Take `COc1ccc2cc1CN(C)CCCNC(=O)[C@H](CO)NCc1cccc(c1)Nc1nccc-2n1` [Compound 118]: the IC50 is over 10 µM with H1299, 6.61 µM at AuroraB (h), over 10 µM on CDK4/CyclinD1 (h) and over 10 µM on PLK3 (h).
